Laboratory results as given in ChEMBL document CHEMBL5120939, “Novel Isoindolinone-Based Analogs of the Natural Cyclic Peptide Fenestin A: Synthesis and Antitumor Activity” (ACS Med Chem Lett, 2022).

Assays:
Type in all cases: functional
HeLa [1] = assay: Induction of cell cycle arrest in human HeLa cells assessed as 2N cells at 6.2 uM incubated for 48 hrs by RNAse A/PI staining based flow cytometric analysis (reference value: 29.9%)
HeLa [2] = assay: Induction of cell cycle arrest in human HeLa cells assessed as 2N cells at 12.3 uM incubated for 12 hrs by RNAse A/PI staining based flow cytometric analysis (reference value: 29.9%)
HeLa [3] = assay: Induction of cell cycle arrest in human HeLa cells assessed as 4N cells at 6.2 uM incubated for 48 hrs by RNAse A/PI staining based flow cytometric analysis (reference value: 5.37%)
HeLa [4] = assay: Induction of mitochondrial membrane potential loss in human HeLa cells assessed as decrease in fluorescence intensity […] at 6.2 uM by Rhodamine 123 staining based flow cytometric analysis (reference value: 58.0%); design: scale not given: the % may be the effect or the level left
HeLa [5] = assay: Induction of cell cycle arrest in human HeLa cells assessed as accumulation at G2/M phase at 12.3 uM by RNAse A/PI staining based flow cytometric analysis relative to control
HeLa [6] = assay: Induction of cell cycle arrest in human HeLa cells assessed as S phase cells at 6.2 uM incubated for 48 hrs by RNAse A/PI staining based flow cytometric analysis (reference value: 20.5%)
HeLa [7] = assay: Induction of cell cycle arrest in human HeLa cells assessed as accumulation at G2/M phase at 24.6 uM by RNAse A/PI staining based flow cytometric analysis relative to control
HeLa [8] = assay: Induction of mitochondrial membrane potential loss in human HeLa cells assessed as decrease in fluorescence intensity […] at 24.6 uM by Rhodamine 123 staining based flow cytometric analysis (reference value: 58.0%); design: scale not given: the % may be the effect or the level left
HeLa [9] = assay: Induction of cell cycle arrest in human HeLa cells assessed as >4N cells at 12.3 uM incubated for 24 hrs by RNAse A/PI staining based flow cytometric analysis (reference value: 2.61%)
HeLa [10] = assay: Induction of cell cycle arrest in human HeLa cells assessed as <2N cells at 12.3 uM incubated for 12 hrs by RNAse A/PI staining based flow cytometric analysis (reference value: 41.6%)
HeLa [11] = assay: Induction of apoptosis in human HeLa cells assessed as late apoptotic cells at 13.2 uM incubated for 48 hrs by annexinV-FITC/propidium iodide staining based flow cytometry analysis (reference value: 0.1%)
HeLa [12] = assay: Induction of apoptosis in human HeLa cells assessed as early apoptotic cells at 26.1 uM incubated for 48 hrs by annexinV-FITC/propidium iodide staining based flow cytometry analysis (reference value: 0.1%)
HeLa [13] = assay: Induction of cell cycle arrest in human HeLa cells assessed as 2N cells at 12.3 uM incubated for 48 hrs by RNAse A/PI staining based flow cytometric analysis (reference value: 29.9%)
HeLa [14] = assay: Induction of cell cycle arrest in human HeLa cells assessed as >4N cells at 6.2 uM incubated for 48 hrs by RNAse A/PI staining based flow cytometric analysis (reference value: 2.61%)
HeLa [15] = assay: Induction of cell cycle arrest in human HeLa cells assessed as 4N cells at 12.3 uM incubated for 48 hrs by RNAse A/PI staining based flow cytometric analysis (reference value: 5.37%)
HeLa [16] = assay: Induction of cell cycle arrest in human HeLa cells assessed as >4N cells at 12.3 uM incubated for 12 hrs by RNAse A/PI staining based flow cytometric analysis (reference value: 2.61%)
HeLa [17] = assay: Induction of apoptosis in human HeLa cells assessed as viable cells at 13.2 uM incubated for 48 hrs by annexinV-FITC/propidium iodide staining based flow cytometry analysis (reference value: 99.8%); details: read-out: Activity
HeLa [18] = assay: Induction of cell cycle arrest in human HeLa cells assessed as S phase cells at 12.3 uM incubated for 48 hrs by RNAse A/PI staining based flow cytometric analysis (reference value: 20.5%)
HeLa [19] = assay: Induction of cell cycle arrest in human HeLa cells assessed as >4N cells at 24.6 uM incubated for 48 hrs by RNAse A/PI staining based flow cytometric analysis (reference value: 2.61%)
HeLa [20] = assay: Induction of apoptosis in human HeLa cells assessed as necrotic cells at 19.6 uM incubated for 48 hrs by annexinV-FITC/propidium iodide staining based flow cytometry analysis (reference value: 0.0%)
HeLa [21] = assay: Induction of mitochondrial membrane potential loss in human HeLa cells assessed as decrease in fluorescence intensity […] at 12.3 uM by Rhodamine 123 staining based flow cytometric analysis (reference value: 58.0%); design: scale not given: the % may be the effect or the level left
HeLa [22] = assay: Induction of apoptosis in human HeLa cells assessed as late apoptotic cells at 19.6 uM incubated for 48 hrs by annexinV-FITC/propidium iodide staining based flow cytometry analysis (reference value: 0.1%)
HeLa [23] = assay: Induction of cell cycle arrest in human HeLa cells assessed as 4N cells at 12.3 uM incubated for 12 hrs by RNAse A/PI staining based flow cytometric analysis (reference value: 5.37%)
HeLa [24] = assay: Induction of cell cycle arrest in human HeLa cells assessed as >4N cells at 12.3 uM incubated for 48 hrs by RNAse A/PI staining based flow cytometric analysis (reference value: 2.61%)
HeLa [25] = assay: Induction of cell cycle arrest in human HeLa cells assessed as <2N cells at 12.3 uM incubated for 48 hrs by RNAse A/PI staining based flow cytometric analysis (reference value: 41.6%)
HeLa [26] = assay: Induction of cell cycle arrest in human HeLa cells assessed as S phase cells at 12.3 uM incubated for 24 hrs by RNAse A/PI staining based flow cytometric analysis (reference value: 20.5%)
HeLa [27] = assay: Induction of cell cycle arrest in human HeLa cells assessed as S phase cells at 12.3 uM incubated for 12 hrs by RNAse A/PI staining based flow cytometric analysis (reference value: 20.5%)
HeLa [28] = assay: Induction of cell cycle arrest in human HeLa cells assessed as 4N cells at 12.3 uM incubated for 24 hrs by RNAse A/PI staining based flow cytometric analysis (reference value: 5.37%)
HeLa [29] = assay: Induction of apoptosis in human HeLa cells assessed as necrotic cells at 26.1 uM incubated for 48 hrs by annexinV-FITC/propidium iodide staining based flow cytometry analysis (reference value: 0.0%)
HeLa [30] = assay: Induction of apoptosis in human HeLa cells assessed as early apoptotic cells at 19.6 uM incubated for 48 hrs by annexinV-FITC/propidium iodide staining based flow cytometry analysis (reference value: 0.1%)
HeLa [31] = assay: Induction of cell cycle arrest in human HeLa cells assessed as <2N cells at 6.2 uM incubated for 48 hrs by RNAse A/PI staining based flow cytometric analysis (reference value: 41.6%)
HeLa [32] = assay: Induction of cell cycle arrest in human HeLa cells assessed as 2N cells at 12.3 uM incubated for 24 hrs by RNAse A/PI staining based flow cytometric analysis (reference value: 29.9%)

## CC[C@H](C)[C@@H]1NC(=O)[C@H](CC(C)C)NC(=O)[C@@H]2CSCN2C(=O)[C@@H]2CSCN2C(=O)CN2C(=O)c3ccccc3[C@@]2(O)CN(Cc2ccccc2)C1=O
HeLa [1]
  Activity: 24.9%
HeLa [2]
  Activity: 28.8%
HeLa [3]
  Activity: 17%
HeLa [4]
  Activity: 52.6%
HeLa [5]
  Activity: 35.7%
HeLa [6]
  Activity: 11.1%
HeLa [7]
  Activity: 47.5%
HeLa [8]
  Activity: 19.4%
HeLa [9]
  Activity: 11%
HeLa [10]
  Activity: 33.1%
HeLa [11]
  Activity: 7.3%
HeLa [12]
  Activity: 34.6%
HeLa [13]
  Activity: 28.1%
HeLa [14]
  Activity: 9.53%
HeLa [15]
  Activity: 35.7%
HeLa [16]
  Activity: 9.83%
HeLa [17]
  viability at 13.2 µM: 84.5%
HeLa [18]
  Activity: 21.3%
HeLa [19]
  Activity: 3.51%
HeLa [20]
  Activity: 1.3%
HeLa [21]
  Activity: 32.3%
HeLa [22]
  Activity: 6.7%
HeLa [23]
  Activity: 16.8%
HeLa [24]
  Activity: 0%
HeLa [25]
  Activity: 14.9%
HeLa [26]
  Activity: 10.2%
HeLa [27]
  Activity: 11.5%
HeLa [28]
  Activity: 25.1%
HeLa [29]
  Activity: 0.9%
HeLa [30]
  Activity: 23.3%
HeLa [31]
  Activity: 37.5%
HeLa [32]
  Activity: 20.6%
